From patent US11377442B2, “Small molecule agonists and antagonists of NR2F6 activity” (ZANDER THERAPEUTICS, INC., priority 2016, dated 2022)
Where two headings read alike, the source gives them in different places.

Tests used:
Type in all cases: cell-based
NR2F6 = biological target: T1, NR2F6 (Homo sapiens, UniProt P10588); test: NR2F6 agonist screening, Firefly signal cmpd/DMSO
T1 construct: expressed in transfected cells; also transient transfection
T1 sequence (P10588 1-404): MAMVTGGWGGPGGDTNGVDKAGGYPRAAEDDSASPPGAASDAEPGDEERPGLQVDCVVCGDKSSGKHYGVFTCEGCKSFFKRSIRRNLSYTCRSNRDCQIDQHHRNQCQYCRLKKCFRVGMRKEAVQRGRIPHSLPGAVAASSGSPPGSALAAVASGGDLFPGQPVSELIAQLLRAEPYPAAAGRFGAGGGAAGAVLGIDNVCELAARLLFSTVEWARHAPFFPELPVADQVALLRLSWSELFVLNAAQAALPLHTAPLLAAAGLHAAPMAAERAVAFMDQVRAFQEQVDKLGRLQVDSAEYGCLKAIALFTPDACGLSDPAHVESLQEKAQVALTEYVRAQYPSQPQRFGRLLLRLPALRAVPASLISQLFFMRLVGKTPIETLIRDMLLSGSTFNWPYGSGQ

ERα [1] = biological target: T2, ERα (Homo sapiens, UniProt P03372); test: Counterscreening, Firefly signal with ERα transient transfection (Firefly_ERa); settings: 10 uM
T2 construct: expressed in transfected cells
T2 sequence (P03372 1-595): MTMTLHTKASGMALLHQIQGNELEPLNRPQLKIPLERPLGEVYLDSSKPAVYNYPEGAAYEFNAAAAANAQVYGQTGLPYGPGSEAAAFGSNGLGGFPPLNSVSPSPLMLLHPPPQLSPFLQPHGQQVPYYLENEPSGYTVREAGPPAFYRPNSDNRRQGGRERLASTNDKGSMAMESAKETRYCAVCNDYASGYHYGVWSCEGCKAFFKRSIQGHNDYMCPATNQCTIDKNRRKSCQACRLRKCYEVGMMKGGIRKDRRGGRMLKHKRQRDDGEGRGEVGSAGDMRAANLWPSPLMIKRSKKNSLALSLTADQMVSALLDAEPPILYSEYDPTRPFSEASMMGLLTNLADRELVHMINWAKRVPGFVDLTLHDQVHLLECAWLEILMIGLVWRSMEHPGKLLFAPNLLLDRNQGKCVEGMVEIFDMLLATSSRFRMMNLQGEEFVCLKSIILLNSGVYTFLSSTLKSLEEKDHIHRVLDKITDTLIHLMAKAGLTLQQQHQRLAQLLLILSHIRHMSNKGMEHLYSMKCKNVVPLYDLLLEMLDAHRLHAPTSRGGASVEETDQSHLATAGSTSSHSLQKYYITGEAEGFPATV
Procedure: The methodology for screening candidate compounds as NR2F6 agonists was as follows: For primary screening, hit criteria was ACT %>DMSO control+5*SD (DSO control) at 10 μM, or any compound with S/B>2. For rescreening, hit criteria was ACT %>DMSO control+3*SD (DSO control) in each replicate at 10 μM. For counterscreening, hit criteria was mean ACT<DMSO control+3*SD (DMSO control) with ERα transient transfection in duplicate at 10 μM.

ERα [2] = biological target: T2, ERα; test: as above
Renilla_ERa = test: Renilla signal in ERα counterscreen (Renilla_ERa); settings: for fold induction at 2 µM / fold induction at 10 µM / fold induction at 40 µM: read-out: Renilla ERalpha transient, cmpd/DMSO (mean)
Renilla = Renilla signal in NR2F6 agonist screening, cmpd/DMSO; settings: for fold induction at 2 µM / fold induction at 10 µM / fold induction at 40 µM: Renilla, read-out: Renilla F4, cmpd/DMSO (mean)

SMILES | Firefly F4, cmpd/DMSO (mean) (NR2F6; 2 uM, clone F4) | Firefly F4, cmpd/DMSO (mean) (NR2F6; 10 uM, clone F4) | Firefly F4, cmpd/DMSO (mean) (NR2F6; 40 uM, clone F4) | Firefly ERalpha transient, cmpd/DMSO (mean) (ERα [1]) | Firefly ERalpha transient, cmpd/DMSO (mean) (ERα [2]; 2 uM) | Firefly ERalpha transient, cmpd/DMSO (mean) (ERα [2]; 40 uM) | fold induction at 2 µM (Renilla_ERa; 2 uM) | fold induction at 10 µM (Renilla_ERa; 10 uM) | fold induction at 40 µM (Renilla_ERa; 40 uM) | fold induction at 2 µM (Renilla; 2 uM, clone F4) | fold induction at 10 µM (Renilla; 10 uM, clone F4) | fold induction at 40 µM (Renilla; 40 uM, clone F4) | other results
CCOC(=O)c1cnc2c(C)cc(C)cc2c1N1CCC(O)CC1 [Compound Z78] |  |  |  |  |  |  |  |  |  |  |  |  | Firefly F4, cmpd/DMSO (mean) (NR2F6; Table 15, 2 uM): 1.4; Firefly F4, cmpd/DMSO (mean) (NR2F6; Table 15, 10 uM): 1.5; Firefly F4, cmpd/DMSO (mean) (NR2F6; Table 15, 40 uM): 1.6; Firefly ERalpha transient, cmpd/DMSO (mean) (ERα [1]; Table 15): 2.4; Firefly ERalpha transient, cmpd/DMSO (mean) (ERα [2]; Table 15, 2 uM): 1.5; Firefly ERalpha transient, cmpd/DMSO (mean) (ERα [2]; Table 15, 40 uM): 1.1; fold induction at 2 µM (Renilla_ERa; Table 15, 2 uM): 1; fold induction at 10 µM (Renilla_ERa; Table 15, 10 uM): 0.9; fold induction at 40 µM (Renilla_ERa; Table 15, 40 uM): 0.6; fold induction at 2 µM (Renilla; Table 15, 2 uM): 1.1; fold induction at 10 µM (Renilla; Table 15, 10 uM): 1; fold induction at 40 µM (Renilla; Table 15, 40 uM): 0.8
COC(=O)c1[nH]c2c(c(C(F)(F)F)nc3ccc(OC)cc32)c1N [Compound Z47] | 0.9 | 1.3 | 2.0 | 1.0 | 0.9 | 1.7 | 1.2 | 1.4 | 1.2 | 1.1 | 1.2 | 1.7 | 
N#Cc1c(C(F)(F)F)nc2ccc(Cl)cc2c1N1CCOCC1 [Compound Z43] | 1.3 | 0.8 | 0.8 | 0.9 | 1.4 | 1.6 | 1 | 1 | 0.9 | 1 | 0.9 | 0.7 | 
O=c1cccc2n1CC1CC2CN(c2nc(NCCC3=CCCCC3)nc(N3CCOCC3)n2)C1 (stereo not drawn) [Compound 39] | 1.1 | 0.9 | 0.9 | 0.6 | 0.9 | 0.9 | 1.1 | 1.2 | 1.2 | 1.2 | 1.4 | 1 | 
Cc1cc(C)c2ncc(C(=O)O)c(NCCCN(C)C)c2c1 [Compound Z28] | 1.0 | 0.9 | 1.3 | 1.1 | 1.8 | 1.3 | 1.1 | 1.3 | 1 | 1 | 1.2 | 1.2 | 
O=C(O)c1ccc(-n2ncc(Cl)c(Cl)c2=O)cc1 [Compound 44] | 1.3 | 1.5 | 0.7 | 1.3 | 1.5 | 0.5 | 1.3 | 1.2 | 0.3 | 1.1 | 1.1 | 0.3 | 
COc1ccc(-c2cc3n(n2)C(N)=C(C#N)C(c2ccc(N4CCOCC4)cc2)(C(F)(F)F)N3)cc1OC (stereo not drawn) [Compound Z45] | 0.8 | 1.2 | 0.5 | 0.6 | 0.8 | 0.7 | 1.1 | 0.8 | 1 | 1.2 | 1.2 | 1.1 | 
Cc1cc(C)c2ncc(C(=O)N(C)C)c(NCCCN(C)C)c2c1 [Compound Z31] | 0.8 | 0.9 | 1.1 | 1.6 | 0.9 | 1.3 | 1 | 1 | 1 | 1.1 | 1 | 1 | 
CC1CCN(c2nc(N3CCC(C)CC3)nc(N3CCn4c(cccc4=O)C3)n2)CC1 [Compound 36] | 1.3 | 0.6 | 0.9 | 0.8 | 1.1 | 0.4 |  |  |  |  |  |  | Renilla ERalpha transient, cmpd/DMSO (mean) (Renilla_ERa; 2 uM): 1.2; Renilla ERalpha transient, cmpd/DMSO (mean) (Renilla_ERa; 10 uM): 1.1; Renilla ERalpha transient, cmpd/DMSO (mean) (Renilla_ERa; 40 uM): 0.3; Renilla F4, cmpd/DMSO (mean) (Renilla; 2 uM, clone F4): 1.2; Renilla F4, cmpd/DMSO (mean) (Renilla; 10 uM, clone F4): 0.8; Renilla F4, cmpd/DMSO (mean) (Renilla; 40 uM, clone F4): 0.5
COc1ccc(-c2cc3n(n2)C(N)=C(C#N)C(c2cccn2C)(C(F)(F)F)N3)cc1OC (stereo not drawn) [Compound Z50] | 0.8 | 0.9 | 0.6 | 0.7 | 1.3 | 0.7 | 1 | 0.8 | 0.6 | 1.6 | 2 | 0.8 | 
COc1ccc2nc(C(F)(F)F)c(C#N)c(N3CCN(C)CC3)c2c1 [Compound Z41] | 1.0 | 1.1 | 1.7 | 1.4 | 0.9 | 1.6 | 1 | 1.1 | 0.8 | 0.7 | 0.6 | 0.6 | 
CC1CCN(c2nc(NCCN3CCOCC3)nc(N3CC4CC(C3)c3cccc(=O)n3C4)n2)CC1 (stereo not drawn) [Compound 43] | 1.0 | 0.9 | 0.8 | 1.4 | 1.4 | 1.2 | 1.1 | 1 | 1 | 1 | 1.1 | 1.1 | 
CCOC(=O)c1cnc2c(C)cc(C)cc2c1NCCCN1CCCC1 [Compound Z61] |  |  |  |  |  |  |  |  |  |  |  |  | Firefly F4, cmpd/DMSO (mean) (NR2F6; Table 15, 2 uM): 1.7; Firefly F4, cmpd/DMSO (mean) (NR2F6; Table 15, 10 uM): 2.5; Firefly F4, cmpd/DMSO (mean) (NR2F6; Table 15, 40 uM): 0.8; Firefly ERalpha transient, cmpd/DMSO (mean) (ERα [1]; Table 15): 9.1; Firefly ERalpha transient, cmpd/DMSO (mean) (ERα [2]; Table 15, 2 uM): 3.0; Firefly ERalpha transient, cmpd/DMSO (mean) (ERα [2]; Table 15, 40 uM): 0.7; fold induction at 2 µM (Renilla_ERa; Table 15, 2 uM): 1.4; fold induction at 10 µM (Renilla_ERa; Table 15, 10 uM): 0.8; fold induction at 40 µM (Renilla_ERa; Table 15, 40 uM): 0.7; fold induction at 2 µM (Renilla; Table 15, 2 uM): 1.3; fold induction at 10 µM (Renilla; Table 15, 10 uM): 0.5; fold induction at 40 µM (Renilla; Table 15, 40 uM): 0.6
